The values that follow come from US8791123B2, “Substituted pyrazolo[1,5-a]pyrimidine compounds as Trk kinase inhibitors” (Array Biopharma, Inc., priority 2009, dated 2014).

The target in assay [1] is TrkA (histidine-tagged recombinant human TrkA, cytoplasmic domain) (Homo sapiens (Human), UniProt P04629). Description: TrkA ELISA Assay. Format: biochemical. Particulars: Table 1; ELISA, 500 μM ATP; read-out: TrkA Enzyme IC50. The protocol:
An enzyme-linked immunosorbant assay (ELISA) was used to assess TrkA kinase activity in the presence of inhibitors. Immulon 4HBX 384-well microtiter plates (Thermo part #8755) were coated with a 0.025 mg/mL solution of poly (Glu, Ala, Tyr; 6:3:1; Sigma P3899). […] The reaction mixture was removed from the plate by washing with PBS containing 0.1% (v/v) Tween 20. The phosphorylated reaction product was detected using 0.2 μg/mL of a phosphotyrosine specific monoclonal antibody (clone PY20) conjugated to horseradish peroxidase in conjunction with the TMB Peroxidase Substrate System (KPL). After the addition of 1M phosphoric acid, the chromogenic substrate color intensity was quantitated via absorbance at 450 nm.

The target in assay [2] is Human Jak2 kinase domain (Homo sapiens (Human), UniProt O60674). In words: Jak2 Inhibition Assay (Omnia kinase assay). The assay is classed as biochemical. Particulars: for IC50: read-out: Jak2 Enzyme IC50; for Jak2 Enzyme (% inhibition at 1000 nM): 1000 nM test compound. The method, then:
The assays described in Examples C, D, E and F for the determination of JAK1, JAK2, JAK3 and Tyk2 kinase activity, respectively, utilized the Omnia® Kinase fluorescence peptide substrate-based technology (Invitrogen). […] The reactions were therefore read at excitation 360 nm and emission was measured at 485 nm every 50 seconds for 45 minutes using a PerkinElmer EnVision Multilabel Plate Reader.
The final buffer conditions for each of the JAK1, JAK2, JAK3 and Tyk2 assays were as follows: 25 mM HEPES, pH 7.4, 10 mM MgCl2, 0.01% Triton X-100 and 1 mM DTT.
Two-μL aliquots of these were transferred to a fresh plate for a ten-fold intermediate dilution with assay buffer. Five-μL aliquots of the diluted compounds were then transferred to 20-μL of assay mixtures described in Examples C, D, E and F for a final concentration of DMSO of 2%. […] For each plate, percent of control (POC) values were calculated for each well according to the following equation:
[formula] • where • Xmax=Average Uninhibited Controls • Xmin=Average Background IC50's were estimated from the POC's using a standard 4-parameter logistic model:
[formula] • where • A=Minimum Y (Bottom Asymptote) • B=Maximum Y (Top Asymptote) • C=EC50 • D=Slope Factor • X=Compound Concentration (nM) • Y=POC
The IC50 is defined as the concentration of inhibitor at which the POC equals 50 for the fitted curve.
Compounds of Formula I were screened for their ability to inhibit Jak2 using the general enzyme inhibition assay method, in which the assay mixture contained 500 μM ATP, 10 μM Omnia® Y7 peptide (Catalog # IVGN KNZ3071C, Invitrogen Corporation, Carlsbad, Calif.) and 4 nM Jak2 in a total volume of 20 μL. Human Jak2 kinase domain comprising amino acids 808-1132 was purchased from Invitrogen Corporation, Carlsbad, Calif. (catalog # IVGN PV4210).

The mark [3] stands for this setting: Table 1, 500 μM ATP, >1000 nM when >50% inhibition not observed at 1000 nM.

Like-named read-outs stand apart in the source and are kept apart here. Where only a bound is given, the exact number is not on record here.

Sequence of TrkA (histidine-tagged recombinant human TrkA, cytoplasmic domain) (P04629 440-796): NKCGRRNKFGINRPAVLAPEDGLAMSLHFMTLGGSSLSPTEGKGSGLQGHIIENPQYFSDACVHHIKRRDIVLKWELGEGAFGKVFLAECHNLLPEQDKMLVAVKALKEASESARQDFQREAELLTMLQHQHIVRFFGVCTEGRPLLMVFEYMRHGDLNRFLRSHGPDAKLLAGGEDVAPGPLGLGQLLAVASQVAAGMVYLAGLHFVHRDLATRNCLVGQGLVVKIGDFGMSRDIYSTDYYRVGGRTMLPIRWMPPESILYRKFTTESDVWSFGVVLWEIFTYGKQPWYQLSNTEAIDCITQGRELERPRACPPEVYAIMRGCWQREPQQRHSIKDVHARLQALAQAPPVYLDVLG
Sequence of Human Jak2 kinase domain (O60674 808-1132): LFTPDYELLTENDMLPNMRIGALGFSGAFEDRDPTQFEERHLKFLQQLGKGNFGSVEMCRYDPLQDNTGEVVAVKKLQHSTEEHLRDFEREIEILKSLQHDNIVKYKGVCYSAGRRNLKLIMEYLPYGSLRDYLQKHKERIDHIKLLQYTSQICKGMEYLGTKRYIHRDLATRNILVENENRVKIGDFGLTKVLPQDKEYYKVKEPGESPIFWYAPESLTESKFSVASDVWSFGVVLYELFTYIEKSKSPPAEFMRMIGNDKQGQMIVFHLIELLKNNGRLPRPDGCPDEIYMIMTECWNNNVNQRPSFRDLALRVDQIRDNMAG

Consider `O=C(c1cnn2ccc(N3CCC[C@@H]3c3cncc(F)c3)nc12)N1CC(O)C1` [Example 108, (R)-(5-(2-(5-fluoropyridin-3-yl)pyrrolidin-1-yl)pyrazolo[1,5-a]pyrimidin-3-yl)(3-hydroxyazetidin-1-yl)methanone], for which the IC50 is 1190 nM in assay [1] and greater than 1000 nM in assay [2] (setting [3]).
The like results for `Cn1cc(F)cc([C@H]2CCCN2c2ccn3ncc(C(=O)Nc4ccc(F)cn4)c3n2)c1=O` [Example 239, (R)-5-(2-(5-fluoro-1-methyl-2-oxo-1,2-dihydropyridin-3-yl)pyrrolidin-1-yl)-N-(5-fluoropyridin-2-yl)pyrazolo[1,5-a]pyrimidine-3-carboxamide] were, in that order, 10.1 nM and greater than 1000 nM.
`COc1ccc(F)cc1[C@H]1CCCN1c1ccn2ncc(C(=O)NC3CC3)c2n1` [Example 48, (R)—N-cyclopropyl-5-(2-(5-fluoro-2-methoxyphenyl)pyrrolidin-1-yl)pyrazolo[1,5-a]pyrimidine-3-carboxamide]: the IC50 in assay [1] worked out at 0.6 nM; in assay [2], 429 nM.
Turning to `Cc1ncc(F)cc1[C@H]1CCCN1c1ccn2ncc(C(=O)N[C@H]3CN4CCC3CC4)c2n1` [Example 198, 5-((R)-2-(5-fluoro-2-methylpyridin-3-yl)pyrrolidin-1-yl)-N-((R)-quinuclidin-3-yl)pyrazolo[1,5-a]pyrimidine-3-carboxamide], the IC50 was 243 nM in assay [1] and greater than 1000 nM in assay [2] (setting [3]).
For the compound `COc1ncc(F)cc1[C@H]1CCCN1c1ccn2ncc(C(=O)NC(C)(C)CF)c2n1` [Example 81, (R)-5-(2-(5-fluoro-2-methoxypyridin-3-yl)pyrrolidin-1-yl)-N-(1-fluoro-2-methylpropan-2-yl)pyrazolo[1,5-a]pyrimidine-3-carboxamide], the 50% inhibitory concentration (IC50) in assay [1] came to 1.15 nM; in assay [2], 666 nM.
For the compound `CNC(=O)c1cnn2ccc(N3CCC[C@@H]3c3cc(F)cnc3C)nc12` [Example 186, (R)-5-(2-(5-fluoro-2-methylpyridin-3-yl)pyrrolidin-1-yl)-N-methylpyrazolo[1,5-a]pyrimidine-3-carboxamide], the figures for the IC50 in assay [1] and in assay [2] (setting [3]) were 57.1 nM and greater than 1000 nM, respectively.
As to `O=C(Nc1ccccn1)c1cnn2ccc(N3CCC[C@@H]3c3cc(F)ccc3F)nc12` [Example 2, (R)-5-(2-(2,5-difluorophenyl)pyrrolidin-1-yl)-N-(pyridin-2-yl)pyrazolo[1,5-a]pyrimidine-3-carboxamide], the IC50 in assay [1] was 0.7 nM; in assay [2] (setting [3]) it was greater than 1000 nM.
For `C[C@H](NC(=O)c1cnn2ccc(N3CCC[C@@H]3c3cncc(F)c3)nc12)C(F)(F)F` [Example 130, 5-((R)-2-(5-fluoropyridin-3-yl)pyrrolidin-1-yl)-N-((S)-1,1,1-trifluoropropan-2-yl)pyrazolo[1,5-a]pyrimidine-3-carboxamide] the same measures were 1.7 nM and greater than 1000 nM.
As to `COc1ncc(F)cc1[C@H]1CCCN1c1ccn2ncc(C(=O)NC(C)(C)C)c2n1` [Example 80, (R)—N-tert-butyl-5-(2-(5-fluoro-2-methoxypyridin-3-yl)pyrrolidin-1-yl)pyrazolo[1,5-a]pyrimidine-3-carboxamide], the IC50 in assay [1] worked out at 1.8 nM; in assay [2], 869 nM.
On to `CC(C)[C@H](CO)NC(=O)c1cnn2ccc(N3CCC[C@@H]3c3cncc(F)c3)nc12` [Example 122, 5-((R)-2-(5-fluoropyridin-3-yl)pyrrolidin-1-yl)-N-((R)-1-hydroxy-3-methylbutan-2-yl)pyrazolo[1,5-a]pyrimidine-3-carboxamide], for which the IC50 in assay [1] is 33.2 nM; in assay [2] (setting [3]), greater than 1000 nM.
`Cn1cnc(CNC(=O)c2cnn3ccc(N4CCC[C@@H]4c4cc(F)ccc4F)nc23)c1` [Example 21, (R)-5-(2-(2,5-difluorophenyl)pyrrolidin-1-yl)-N-((1-methyl-1H-imidazol-4-yl)methyl)pyrazole[1,5-a]pyrimidine-3-carboxamide]: the half-maximal inhibitory concentration (IC50) in assay [1] is 2.95 nM; in assay [2] (setting [3]), greater than 1000 nM.
Turning to `O=C(N[C@@H]1CCC[C@H]1O)c1cnn2ccc(N3CCC[C@@H]3c3cncc(F)c3)nc12` [Example 133, 5-((R)-2-(5-fluoropyridin-3-yl)pyrrolidin-1-yl)-N-((1R,2R)-2-hydroxycyclopentyl)pyrazolo[1,5-a]pyrimidine-3-carboxamide], the half-maximal inhibitory concentration (IC50) in assay [1] was 16 nM; in assay [2] (setting [3]) it was greater than 1000 nM.
As to `O=C(N[C@H]1CC[C@H](O)C1)c1cnn2ccc(N3CCC[C@@H]3c3cc(F)ccc3F)nc12` [Example 169, 5-((R)-2-(2,5-difluorophenyl)pyrrolidin-1-yl)-N-((1S,3S)-3-hydroxycyclopentyl)pyrazolo[1,5-a]pyrimidine-3-carboxamide], the IC50 in assay [1] came to 0.9 nM; in assay [2] (setting [3]) it was 759 nM.
For `O=C(c1cnn2ccc(N3CCC[C@@H]3c3cncc(F)c3)nc12)N1CCCCC1` [Example 137, (R)-(5-(2-(5-fluoropyridin-3-yl)pyrrolidin-1-yl)pyrazolo[1,5-a]pyrimidin-3-yl)(piperidin-1-yl)methanone] the same measures were 794 nM and greater than 1000 nM.
For the compound `COc1ncc(F)cc1[C@H]1CCCN1c1ccn2ncc(C(=O)Nc3ccn(C(C)C)n3)c2n1` [Example 244, (R)-5-(2-(5-fluoro-2-methoxypyridin-3-yl)pyrrolidin-1-yl)-N-(1-isopropyl-1H-pyrazol-3-yl)pyrazolo[1,5-a]pyrimidine-3-carboxamide], the IC50 in assay [1] was 38.2 nM.
Regarding `Cc1ncc(F)cc1[C@H]1CCCN1c1ccn2ncc(C(=O)N[C@H]3CC[C@@H](O)CC3)c2n1` [Example 195, 5-((R)-2-(5-fluoro-2-methylpyridin-3-yl)pyrrolidin-1-yl)-N-((cis)-4-hydroxycyclohexyl)pyrazolo[1,5-a]pyrimidine-3-carboxamide], the “Jak2 Enzyme (% inhibition at 1000 nM)” value in assay [2] (Table 1) is reported as “(16.2) %”.
Regarding `COc1ncc(F)cc1[C@H]1CCCN1c1ccn2ncc(C(=O)Nc3ccn(C)n3)c2n1` [Example 241, (R)-5-(2-(5-fluoro-2-methoxypyridin-3-yl)pyrrolidin-1-yl)-N-(1-methyl-1H-pyrazol-3-yl)pyrazolo[1,5-a]pyrimidine-3-carboxamide], the IC50 in assay [1] was determined as 21.8 nM.
Turning to `COc1ncc(F)cc1[C@H]1CCCN1c1ccn2ncc(C(=O)Nc3cc(C4CC4)n[nH]3)c2n1` [Example 242, (R)-N-(3-cyclopropyl-1H-pyrazol-5-yl)-5-(2-(5-fluoro-2-methoxypyridin-3-yl)pyrrolidin-1-yl)pyrazolo[1,5-a]pyrimidine-3-carboxamide], the IC50 in assay [1] is 8.9 nM.
Turning to `COc1ncc(F)cc1[C@H]1CCCN1c1ccn2ncc(C(=O)Nc3cc(C)n[nH]3)c2n1` [Example 240, (R)-5-(2-(5-fluoro-2-methoxypyridin-3-yl)pyrrolidin-1-yl)-N-(3-methyl-1H-pyrazol-5-yl)pyrazolo[1,5-a]pyrimidine-3-carboxamide], the IC50 in assay [1] turned out to be 11.3 nM.
Take `O=C(N[C@H]1CC[C@@H](O)CC1)c1cnn2ccc(N3CCC[C@@H]3c3cncc(F)c3)nc12` [Example 100, 5-((R)-2-(5-fluoropyridin-3-yl)pyrrolidin-1-yl)-N-((cis)-4-hydroxycyclohexyl)pyrazolo[1,5-a]pyrimidine-3-carboxamide]: the “Jak2 Enzyme (% inhibition at 1000 nM)” value in assay [2] (Table 1) is reported as “(13.8) %”.
Take `O=C(NCCN1CCC(O)CC1)c1cnn2ccc(N3CCC[C@@H]3c3cc(F)ccc3F)nc12` [Example 170, 5-((R)-2-(2,5-difluorophenyl)pyrrolidin-1-yl)-N-(2-(4-hydroxypiperidin-1-yl)ethyl)pyrazolo[1,5-a]pyrimidine-3-carboxamide]: the IC50 in assay [2] (setting [3]) was greater than 1000 nM.

A word on the IC50: it is the concentration that inhibits the measured activity by half.
